# Reference: PubChem BioAssay AID328 (DTP/NCI, 2004)
# “And” between values parts separate entries of the source, which are not always exact repeats. Equal values may be shown once. Toxic doses and inconclusive results are not listed.
# Test system: BDF1 mice, P388 leukemia ip, median survival T/C
# Test: NCI In Vivo Anticancer Drug Screen. Data for tumor model P388 Leukemia (intraperitoneal) in B6D2F1 (BDF1) mice
# Conditions: endpoint: median survival time, higher = longer survival
# Outline: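 Read-out is survival of treated animals expressed relative to the vehicle group, as a T/C ratio.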
structure (smiles),measurement,setting,value
COc1cc(NS(C)(=O)=O)ccc1Nc1c2ccccc2nc2ccccc12,T/C,"dose: 0.25 mg/kg/injection, schedule: Q01DX009 (ip), vehicle: other",154 % of control
same,T/C,"dose: 0.25 mg/kg/injection, schedule: Q01DX009 (ip), vehicle: saline",150 % of control
same,T/C,"dose: 0.5 mg/kg/injection, schedule: Q01DX009 (ip), vehicle: other",161 % of control and 175 % of control
same,T/C,"dose: 0.57 mg/kg/injection, schedule: Q01DX009 (ip), vehicle: Klucel (hydroxypropylcellulose) (HPC)",210 % of control
same,T/C,"dose: 0.8 mg/kg/injection, schedule: Q01DX005 (ip), vehicle: other",182 % of control
same,T/C,"dose: 0.8 mg/kg/injection, schedule: Q01DX005 (iv), vehicle: other",104 % of control and 109 % of control
same,T/C,"dose: 0.8 mg/kg/injection, schedule: Q04DX003 (iv), vehicle: other",108 % of control
same,T/C,"dose: 0.85 mg/kg/injection, schedule: Q01DX009 (ip), vehicle: Klucel (hydroxypropylcellulose) (HPC)",195 % of control
same,T/C,"dose: 1.0 mg/kg/injection, schedule: Q01DX009 (ip), vehicle: other",175 % of control and 195 % of control
same,T/C,"dose: 1.3 mg/kg/injection, schedule: Q01DX009 (ip), vehicle: Klucel (hydroxypropylcellulose) (HPC)",173 % of control
same,T/C,"dose: 1.56 mg/kg/injection, schedule: Q01DX009 (ip), vehicle: Klucel (hydroxypropylcellulose) (HPC)",166 % of control
same,T/C,"dose: 1.6 mg/kg/injection, schedule: Q01DX005 (ip), vehicle: other",202 % of control
same,T/C,"dose: 1.6 mg/kg/injection, schedule: Q01DX005 (iv), vehicle: other",115 % of control and 120 % of control
same,T/C,"dose: 1.6 mg/kg/injection, schedule: Q04DX003 (iv), vehicle: other",107 % of control
same,T/C,"dose: 2.0 mg/kg/injection, schedule: Q01DX009 (ip), vehicle: Klucel (hydroxypropylcellulose) (HPC)",169 % of control
same,T/C,"dose: 2.0 mg/kg/injection, schedule: Q01DX009 (ip), vehicle: other",193 % of control and 216 % of control
same,T/C,"dose: 3.3 mg/kg/injection, schedule: Q01DX005 (ip), vehicle: other",220 % of control
same,T/C,"dose: 3.3 mg/kg/injection, schedule: Q04DX003 (iv), vehicle: other",122 % of control
same,T/C,"dose: 3.6 mg/kg/injection, schedule: Q04DX003 (ip), vehicle: clinical formulation",192 % of control
same,T/C,"dose: 3.6 mg/kg/injection, schedule: Q04DX003 (ip), vehicle: other",215 % of control
same,T/C,"dose: 4.12 mg/kg/injection, schedule: Q01DX009 (ip), vehicle: Klucel (hydroxypropylcellulose) (HPC)",227 % of control and 204 % of control
same,T/C,"dose: 5.4 mg/kg/injection, schedule: Q04DX003 (ip), vehicle: clinical formulation",210 % of control
same,T/C,"dose: 6.0 mg/kg/injection, schedule: Q04DX003 (ip), vehicle: clinical formulation",211 % of control
same,T/C,"dose: 6.0 mg/kg/injection, schedule: Q04DX003 (ip), vehicle: other",169 % of control
same,T/C,"dose: 6.25 mg/kg/injection, schedule: Q01DX009 (ip), vehicle: Klucel (hydroxypropylcellulose) (HPC)",236 % of control and 259 % of control and 272 % of control
same,T/C,"dose: 6.5 mg/kg/injection, schedule: Q04DX003 (iv), vehicle: other",116 % of control
same,T/C,"dose: 6.6 mg/kg/injection, schedule: Q04DX003 (ip), vehicle: other",236 % of control
same,T/C,"dose: 6.6 mg/kg/injection, schedule: Q08DX002 (ip), vehicle: other",191 % of control
same,T/C,"dose: 6.6 mg/kg/injection, schedule: Q08DX002 (iv), vehicle: other",118 % of control
same,T/C,"dose: 7.0 mg/kg/injection, schedule: Q04DX003 (ip), vehicle: lactic acid",225 % of control and 263 % of control and 272 % of control
same,T/C,"dose: 7.0 mg/kg/injection, schedule: Q04DX003 (ip), vehicle: saline with Tween-80",240 % of control
same,T/C,"dose: 9.0 mg/kg/injection, schedule: Q04DX003 (ip), vehicle: clinical formulation",215 % of control
same,T/C,"dose: 9.37 mg/kg/injection, schedule: Q01DX009 (ip), vehicle: Klucel (hydroxypropylcellulose) (HPC)",268 % of control and 104 % of control
same,T/C,"dose: 10.0 mg/kg/injection, schedule: Q04DX003 (ip), vehicle: clinical formulation",248 % of control
same,T/C,"dose: 10.0 mg/kg/injection, schedule: Q04DX003 (ip), vehicle: other",225 % of control and 272 % of control
same,T/C,"dose: 10.0 mg/kg/injection, schedule: Q08DX002 (ip), vehicle: other",193 % of control
same,T/C,"dose: 11.0 mg/kg/injection, schedule: Q04DX003 (ip), vehicle: lactic acid",291 % of control and 354 % of control and 541 % of control
same,T/C,"dose: 11.0 mg/kg/injection, schedule: Q04DX003 (ip), vehicle: saline with Tween-80",295 % of control
same,T/C,"dose: 12.5 mg/kg/injection, schedule: Q01DX009 (ip), vehicle: Klucel (hydroxypropylcellulose) (HPC)",260 % of control
same,T/C,"dose: 15.0 mg/kg/injection, schedule: Q04DX003 (ip), vehicle: other",111 % of control
same,T/C,"dose: 15.0 mg/kg/injection, schedule: Q04DX003 (iv), vehicle: other",157 % of control
same,T/C,"dose: 15.0 mg/kg/injection, schedule: Q08DX002 (ip), vehicle: other",245 % of control
same,T/C,"dose: 16.0 mg/kg/injection, schedule: Q04DX003 (ip), vehicle: lactic acid",190 % of control
same,T/C,"dose: 16.0 mg/kg/injection, schedule: Q04DX003 (ip), vehicle: saline with Tween-80",377 % of control
same,T/C,"dose: 16.7 mg/kg/injection, schedule: Q04DX003 (ip), vehicle: clinical formulation",118 % of control
same,T/C,"dose: 22.6 mg/kg/injection, schedule: Q04DX003 (iv), vehicle: other",170 % of control
same,T/C,"dose: 22.6 mg/kg/injection, schedule: Q08DX002 (iv), vehicle: other",190 % of control
same,T/C,"dose: 26.0 mg/kg/injection, schedule: Q04DX003 (iv), vehicle: other",203 % of control
same,T/C,"dose: 34.0 mg/kg/injection, schedule: Q04DX003 (iv), vehicle: other",200 % of control
same,T/C,"dose: 34.0 mg/kg/injection, schedule: Q08DX002 (iv), vehicle: other",200 % of control
